1 molecule from patent US9080220B2 (priority 2006, dated 2015) can be followed below.

This assay deals with inflammatory hyperalgesia induced by carrageenan on a rat's paw. Details: species or system rat (male Sprague Dawley). The following applies: in vivo, ip.

The structures appear in SMILES notation. Like-named read-outs stand apart in the source and are kept apart here.

As for `CN1CC[C@]23c4c5ccc(O)c4O[C@H]2[C@@H](O)C=C[C@H]3[C@H]1C5` [morphine], the “protection against hyperalgesia induced by carrageenan” value (0.3 mg/kg) is on record as “does not induce statistically significant protection”. Moreover, the “increase of pain threshold following a mechanical stimulus applied to the rats' paws” value (1 mg/kg) worked out at 65% and the “increase of pain threshold following a mechanical stimulus applied to the rats' paws” value (3 mg/kg) stood at 97%.
